Assay results taken from patent publication US11000492B2, “Fluorenone compound for the treatment of gout” (The Trustees of Columbia University in the City of New York, priority 2015, dated 2021).
“Also recorded” adds a separate entry of the source. Read-outs that look alike come from different tables or passages of the source.

Assays:
serum uric acid [1] = conditions: cited from earlier work; for patients meeting target serum levels (serum uric acid): patients with at least one measurable tophus
[2] = test system: uric acid levels in the urine; test: Uric acid levels in the urine of guinea pig; assay type: in vivo
Text: The fluorenone DPOFA, (R)-(+)-(5,6-dichloro-2,3,9,9a-tetrahydro-3-oxo-9a-propyl-1H-fluoren-7-yl)oxy]acetic acid, was originally developed for trauma-induced brain damage.

serum uric acid [3] = test: Serum uric acid after systemic intraperitoneal administration in guinea pigs; assay type: in vivo
[4] = humans; originally studied for treating brain edema; cited from earlier work
gout = test: Administration of DPOFA to subjects afflicted with or at risk of gout (Examples 3-6); assay type: in vivo, human
Method: An amount of compound DPOFA is administered to a human subject afflicted with gout. […] An amount of compound DPOFA in combination with allopurinol or febuxostat is administered to a subject afflicted with gout. […] An amount of compound DPOFA is administered to a subject with a history of gout flares or who is at risk for a gout flare. […] An amount of compound DPOFA in combination with allopurinol or febuxostat is administered to a subject with history of gout flares or who is at risk for a gout flare.

serum urate = conditions: cited from earlier work
[5] = particularly in the 400 mg group

## Cc1nc(-c2ccc(OCC(C)C)c(C#N)c2)sc1C(=O)O [febuxostat]
Serum uric acid [1]; febuxostat alone
  patients meeting target serum levels (serum uric acid): 46%

## CCC[C@]12CCC(=O)C=C1c1c(cc(OCC(=O)O)c(Cl)c1Cl)C2 [DPOFA]
[2]
  uric acid levels in the urine: increases uric acid levels in the urine
Serum uric acid [3]; 20 mg intraperitoneally
  reduction in the serum uric acid level: pronounced reduction; also recorded: reduced uric acid levels in the blood
Serum uric acid [3]; following systemic administration of 20 mg
  time point of maximum reduction of uric acid: 7 h
[4]
  crossing of the blood-brain barrier: failed to cross the blood-brain barrier
gout; human subject afflicted with gout, Example 3
  serum uric acid levels in subject afflicted with gout: reduces serum uric acid levels
gout; in combination with allopurinol or febuxostat, Example 4
  treating gout, combination versus each compound alone: more effective in treating the gout than each compound administered alone
gout; in combination with allopurinol or febuxostat, Example 6
  preventing gout, combination versus each compound alone: more effective in preventing the gout than each compound administered alone
gout; subject with a history of gout flares or at risk, Example 5
  prevention of gout flares: effective to prevent gout flares

## CCCN(CCC)S(=O)(=O)c1ccc(C(=O)O)cc1 [probenecid]
Serum urate; allopurinol combination treatment group, 10/27
  patients achieving target serum urate concentrations (<0.36 mmol/l): 37%
Serum urate; human, in vivo
  adverse effects, share of subjects tested: 19%
Serum urate; probenecid monotherapy group, 10/30
  patients achieving target serum urate concentrations (<0.36 mmol/l): 33%

## O=C(O)CSc1nnc(Br)n1-c1ccc(C2CC2)c2ccccc12 [lesinurad]
Serum uric acid [1]; 200 mg dose
  improvement at six months (primary endpoint): failed to show a significant improvement
Serum uric acid [1]; combination with febuxostat
  proportion of subjects achieving a complete resolution of at least one tophus by month 12: did not result in a significant difference
Serum uric acid [1]; lesinurad 400 mg in combination with febuxostat
  patients meeting target serum levels (serum uric acid): 76%
Serum uric acid [1]; [5]
  rate of renal-related AEs: higher rate of renal-related AEs
  serum creatinine levels: rise in serum creatinine levels
